Counter-ions that a name gives are not always drawn.
Target: T1, human 5-HT1A receptor (Homo sapiens, UniProt P08908)
T1 construct: expressed in transfected cells
T1 sequence (P08908 1-422): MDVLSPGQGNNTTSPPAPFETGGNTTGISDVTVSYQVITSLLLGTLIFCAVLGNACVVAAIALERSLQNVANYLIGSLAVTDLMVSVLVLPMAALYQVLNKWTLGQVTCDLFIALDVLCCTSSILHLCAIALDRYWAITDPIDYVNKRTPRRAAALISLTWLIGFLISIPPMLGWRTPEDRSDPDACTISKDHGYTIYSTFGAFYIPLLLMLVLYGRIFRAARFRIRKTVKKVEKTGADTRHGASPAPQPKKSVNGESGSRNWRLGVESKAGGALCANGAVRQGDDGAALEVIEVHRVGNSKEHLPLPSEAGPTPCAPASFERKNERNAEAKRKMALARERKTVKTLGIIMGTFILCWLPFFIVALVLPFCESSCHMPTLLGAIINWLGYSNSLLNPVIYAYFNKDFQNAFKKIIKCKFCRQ
Test: [3H]-8-OH-DPAT displacement radioligand binding
Conditions: h5-HT1A.CHO cell membranes, read-out: Ki value for 5-HT1A affinity
Procedure: A Ki value is reported. The in vitro functional activity of the compounds of this invention is determined by measuring the effect of the compound on forskolin-induced adenylate cyclase activity in the same cell line. 5-HT1A agonists, such as the full agonist 8-OH-DPAT, inhibit forskolin-induced adenylate cyclase activity, as measured by a reduction in cAMP levels. The compounds of this invention display agonist activity as shown by its ability to induce a decrease in cAMP levels. An EC50 value is reported and the maximum response of the test compound is reported as the percent of a full agonist response (the maximum response obtained with the full agonist 8-OH-DPAT=100%). This percent is expressed as an Emax value.
The PCR cloning of the human 5-HT1A receptor subtype from a human genomic library has been described previously (Chanda et al., Mol. Pharmacol., 43:516 (1993)). A stable Chinese hamster ovary cell line expressing the human 5-HT1A receptor subtype (h5-HT1A.CHO cells) was employed throughout this study. Cells were maintained in DMEM supplemented with 10% fetal calf serum, non-essential amino acids and penicillin/streptomycin.
Radioligand binding assays can be performed as described in Dunlop, J. et al., J. Pharmacol. and Toxicol. Methods 40: 47-55 (1998). […] Non-specific binding is determined in the presence of 10 μM 5HT. […]

Oc1cc(N2CCN(C3CCN(c4ccc(F)c5cccnc45)CC3)CC2)c2ncccc2c1 [Metabolite M21, 8-{4-[1-(5-fluoroquinolin-8-yl)piperidin-4-yl]piperazin-1-yl}quinolin-6-ol trihydrochloride]
Ki: 0.47 nM
